By solubility is commonly meant the concentration that dissolves in the medium under given conditions. The bioavailability is the share of a dose that reaches the circulation, judged against a reference dose that is usually intravenous. As usually defined, the IC50 is the concentration that gives 50% inhibition. A lower IC50 goes with greater potency. A word on the IC90: it is the concentration needed for an effect of 90%. A word on the melting point: it is the temperature, or range, at which the solid turns liquid.

Converted amounts (≈) assume the structure as drawn. Like-named read-outs stand apart in the source and are kept apart here.

Data set [1] in a line: Solubility in water and oil. The format is physicochemical.
Data set [2] is described as follows: Bioavailability measured in animals. In kind it is in vivo.
The nature of data set [3]: Oral administration to rats, plasma pharmacokinetics. In kind it is in vivo. The conditions noted are these: rat, suspension in tween 80, methylcellulose and water. The method, then:
Rats: […] Three rats were administered with each dose vehicle. […] Plasma concentrations of the pharmaceutical were determined as previously described in the dog and the same pharmacokinetic parameters were determined.

A further data set has as its target HIV protease (Human immunodeficiency virus type 1 group M subtype B, UniProt P04585). The data set can be described thus: IC50 and IC90 pharmaceutical plasma levels.

For `CC(C)CN(C[C@@H](O)[C@H](Cc1ccccc1)NC(=O)[C@H](CC(N)=O)NC(=O)c1ccc2ccccc2n1)C(=O)NC(C)(C)C` [Example 1, N^1-[3-[N^2-[[(1,1-dimethylethyl)amino]carbonyl]-N^2-(2-methylpropyl)amino]-2(R)-hydroxy-1(S)-(phenylmethyl)propyl]-2(S)-[N^3-(2-quinolinylcarbonyl)amino]butanediamide], the melting point was 107 to 109.8 °C. The “dose to solubility ratio” value in data set [1] was > 75,000. In data set [1] (oil, oil or lipid, read-out: solubility in oil), the solubility was under 1000 µg/mL. Also, in data set [1] (water, read-out: solubility in water), the solubility was about 10 µg/mL (≈ 16.5 µM). Moreover, the bioavailability in data set [2] (in vivo, normal formulation methods, read-out: bioavailability) was under 1%. Also, in data set [2] (measured in animals, without solubilizer), the bioavailability entry was “very low”. The increase of bioavailability in data set [2] (utilizing a solubilizer in the dosage formulation) is 25–30 fold. The bioavailability in data set [3] was about 1%. On HIV protease, this compound had a half-inhibitory concentration (IC50) of 16.5 nM and an IC90 of 0.1 µg/mL (≈ 0.165 µM).
